Experimental data reported in ChEMBL document CHEMBL4325829, “Design and Synthesis of Tubulin and Histone Deacetylase Inhibitor Based on iso-Combretastatin A-4” (J Med Chem, 2018).
Values after ≈ are worked out from the molar mass of the structure shown. Active and inactive are the calls of the source. No cut-off for these calls is given here.

Legend:
[1] = Inhibition of sheep brain tubulin polymerization assessed as reduction in rate of microtubule assembly by DAPI-fluorescence based assay; set-up: species or system Ovis aries
HCT-116 = assay: Antiproliferative activity against human HCT116 cells after 72 hrs by MTS assay; format: functional
Ovis aries = species on record: Ovis aries; assay: Inhibition of sheep brain tubulin polymerization assessed as reduction in rate of microtubule assembly at 200 uM by DAPI-fluorescence based assay
HT-29 [2] = assay: Antiproliferative activity against human HT-29 cells in presence of isoCA-4 after 72 hrs by MTS assay relative to control; format: functional, cell-based; settings: HT-29, 72 h
A549 = assay: Antiproliferative activity against human A549 cells after 72 hrs by MTS assay; format: functional
MIA PaCa-2 = assay: Antiproliferative activity against human MIAPaCa2 cells after 72 hrs by MTS assay; format: functional
BXPC-3 = assay: Antiproliferative activity against human BxPC3 cells after 72 hrs by MTS assay; format: functional
U-87 MG = assay: Antiproliferative activity against human U87 cells after 72 hrs by MTS assay; format: functional, U-87MG ATCC
HT-29 [3] = assay: Antiproliferative activity against human HT-29 cells after 72 hrs by MTS assay; format: functional
PC-3 = assay: Antiproliferative activity against human PC3 cells after 72 hrs by MTS assay; format: functional
HT-29 [4] = assay: Antiproliferative activity against human HT-29 cells assessed as cell viability after 72 hrs by MTS assay relative to control; format: functional
MCF7 = assay: Antiproliferative activity against human MCF7 cells after 72 hrs by MTS assay; format: functional
K562 = assay: Antiproliferative activity against human K562 cells after 72 hrs by MTS assay; format: functional
K-562R = assay: Antiproliferative activity against human K562R cells after 72 hrs by MTS assay; format: functional
[5] = target: T1, Histone deacetylase 8 (Homo sapiens) (UniProt Q9BY41); assay: Inhibition of HDAC8 in human HT-29 cells assessed as acetylated SMC3 levels at 25 uM after 24 hrs by Western blot analysis relative to control; format: cell-based
T1 sequence (whole entry): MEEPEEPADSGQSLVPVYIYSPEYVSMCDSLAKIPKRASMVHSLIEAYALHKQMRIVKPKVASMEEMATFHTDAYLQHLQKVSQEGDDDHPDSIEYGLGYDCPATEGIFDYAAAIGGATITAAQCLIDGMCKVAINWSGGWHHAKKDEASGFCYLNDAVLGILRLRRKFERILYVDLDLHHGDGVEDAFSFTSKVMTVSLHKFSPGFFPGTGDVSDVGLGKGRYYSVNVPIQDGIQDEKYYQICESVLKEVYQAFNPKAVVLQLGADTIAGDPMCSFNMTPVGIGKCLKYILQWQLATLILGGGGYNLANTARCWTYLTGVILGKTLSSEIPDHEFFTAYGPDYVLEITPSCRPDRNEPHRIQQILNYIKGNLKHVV

[6] = Lipophilicity, log P of the compound; format: physicochemical; settings: octanol/water; read-out: logP
[7] = target: T1, Histone deacetylase 8 (Homo sapiens); assay: Inhibition of HDAC8 in human HT-29 cells assessed as acetylated SMC3 levels at 25 uM after 6 hrs by Western blot analysis relative to control; format: cell-based
[8] = target: T2, Protein deacetylase HDAC6 (Homo sapiens) (UniProt Q9UBN7); assay: Inhibition of HDAC6 in human HT-29 cells assessed as acetylated alpha-tubulin levels at 25 uM after 24 hrs by Western blot analysis relative to control; format: cell-based
T2 sequence (whole entry): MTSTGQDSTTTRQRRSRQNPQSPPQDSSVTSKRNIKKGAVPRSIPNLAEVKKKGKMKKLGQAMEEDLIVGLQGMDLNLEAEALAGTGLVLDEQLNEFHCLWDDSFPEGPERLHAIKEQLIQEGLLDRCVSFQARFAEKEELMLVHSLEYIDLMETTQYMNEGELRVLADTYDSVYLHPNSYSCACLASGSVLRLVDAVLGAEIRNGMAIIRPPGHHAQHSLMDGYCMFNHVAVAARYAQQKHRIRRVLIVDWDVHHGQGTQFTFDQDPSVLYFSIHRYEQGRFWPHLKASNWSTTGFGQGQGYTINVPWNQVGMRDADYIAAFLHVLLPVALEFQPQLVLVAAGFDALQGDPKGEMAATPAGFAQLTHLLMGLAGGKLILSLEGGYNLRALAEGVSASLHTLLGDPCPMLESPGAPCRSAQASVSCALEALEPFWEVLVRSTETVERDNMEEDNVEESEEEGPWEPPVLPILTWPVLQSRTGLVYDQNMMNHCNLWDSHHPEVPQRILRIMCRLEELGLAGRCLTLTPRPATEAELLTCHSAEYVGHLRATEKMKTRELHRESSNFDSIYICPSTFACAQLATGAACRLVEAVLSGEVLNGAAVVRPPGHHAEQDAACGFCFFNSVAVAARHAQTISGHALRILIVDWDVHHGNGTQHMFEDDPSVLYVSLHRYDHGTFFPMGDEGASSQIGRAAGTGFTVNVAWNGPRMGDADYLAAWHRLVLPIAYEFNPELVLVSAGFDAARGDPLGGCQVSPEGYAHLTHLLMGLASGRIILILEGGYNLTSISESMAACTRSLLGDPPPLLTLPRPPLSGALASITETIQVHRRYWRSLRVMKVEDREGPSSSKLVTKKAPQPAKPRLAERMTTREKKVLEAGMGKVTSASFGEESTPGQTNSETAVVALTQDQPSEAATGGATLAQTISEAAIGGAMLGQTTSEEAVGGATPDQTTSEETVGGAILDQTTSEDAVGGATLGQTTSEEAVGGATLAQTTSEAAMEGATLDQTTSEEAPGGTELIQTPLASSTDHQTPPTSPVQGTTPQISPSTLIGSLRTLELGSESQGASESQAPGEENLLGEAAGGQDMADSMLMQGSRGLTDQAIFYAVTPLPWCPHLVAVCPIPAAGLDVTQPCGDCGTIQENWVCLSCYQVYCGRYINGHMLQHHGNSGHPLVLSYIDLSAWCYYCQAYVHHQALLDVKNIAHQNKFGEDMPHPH

Histone deacetylase 8 = target: T3, Histone deacetylase 8 (Homo sapiens, UniProt Q9BY41); assay: Inhibition of human recombinant HDAC8 after 30 mins using fluorogenic substrate by fluorimetric assay; settings: read-out: IC50
T3 sequence (Q9BY41 whole entry): T1 sequence (whole entry)

[9] = target: T4, Histone deacetylase (Homo sapiens) (UniProt Q13547+O15379+Q9UBN7+Q92769+Q9UQL6+Q8WUI4+Q9BY41+Q96DB2+P56524+Q9UKV0+Q969S8); assay: Inhibition of HDAC in human HT-29 cells assessed as gamma-H2AX phosphorylation after 3 days by Western blot analysis; format: cell-based
[10] = Aqueous solubility of the compound; format: physicochemical; settings: water
Histone deacetylase 11 = target: T5, Histone deacetylase 11 (Homo sapiens, UniProt Q96DB2); assay: Inhibition of human recombinant HDAC11 after 30 mins using fluorogenic substrate by fluorimetric assay; settings: read-out: IC50
T5 sequence (Q96DB2 whole entry): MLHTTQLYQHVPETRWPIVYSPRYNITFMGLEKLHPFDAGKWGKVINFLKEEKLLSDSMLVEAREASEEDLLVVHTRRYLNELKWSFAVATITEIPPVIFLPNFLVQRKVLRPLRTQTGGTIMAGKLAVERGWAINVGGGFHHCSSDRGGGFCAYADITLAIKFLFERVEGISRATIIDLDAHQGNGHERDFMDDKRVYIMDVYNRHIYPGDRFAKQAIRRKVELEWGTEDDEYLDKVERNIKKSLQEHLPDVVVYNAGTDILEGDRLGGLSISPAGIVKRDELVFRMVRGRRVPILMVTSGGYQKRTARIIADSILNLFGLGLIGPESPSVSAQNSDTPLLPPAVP

[11] = target: T2, Protein deacetylase HDAC6 (Homo sapiens); assay: Inhibition of HDAC6 in human HT-29 cells assessed as acetylated alpha-tubulin levels at 25 uM after 6 hrs by Western blot analysis relative to control; format: cell-based
[12] = target: T6, Protein deacetylase HDAC6 (Homo sapiens, UniProt Q9UBN7)
T6 sequence (Q9UBN7 whole entry): T2 sequence (whole entry)
Description: Inhibition of human recombinant HDAC6 after 30 mins using fluorogenic substrate by fluorimetric assay

[13] = target: T4, Histone deacetylase (Homo sapiens); assay: Inhibition of HDAC in human HT-29 cells assessed as phosphorylated gamma-H2AX levels at 605 nM after 3 days by Western blot analysis relative to control; format: cell-based
[14] = target: T4, Histone deacetylase (Homo sapiens); assay: Inhibition of HDAC in human HT-29 cells assessed as phosphorylated gamma-H2AX levels at 302 nM after 3 days by Western blot analysis relative to control; format: cell-based
[15] = Induction of apoptosis in human BL2 cells assessed as late apoptotic cells at 10 nM after 48 hrs by annexin V-FITC/propidium iodide double staining-based flow cytometry (reference value: 2.1%); format: functional
[16] = Induction of apoptosis in human BL2 cells assessed as early apoptotic cells at 10 nM after 48 hrs by annexin V-FITC/propidium iodide double staining-based flow cytometry (reference value: 8.2%); format: functional

## C=C(c1cc(OC)c(OC)c(OC)c1)c1ccc2c(c1)cc(C(=O)NO)n2C
[1]
  IC50: 81000 nM
HCT-116; Homo sapiens, HCT-116, 72 h
  GI50: 36 nM

## C=C(c1ccc(OC)c(OCCCC(=O)OCC)c1)c1cc(OC)c(OC)c(OC)c1
HCT-116; Homo sapiens, HCT-116, 72 h
  GI50: 1000 nM
Ovis aries
  inhibition: inactive

## CC(/C=C/C(=O)NO)=C\[C@@H](C)C(=O)c1ccc(N(C)C)cc1 [TRICHOSTATIN]
HT-29 [2]
  IC50: 3.8 nM
A549
  GI50: 80 nM
MIA PaCa-2
  GI50: 200 nM
BXPC-3
  GI50: 100 nM
U-87 MG
  GI50: 1040 nM
HCT-116
  GI50: 35 nM
HT-29 [3]
  GI50: 34.1 nM
PC-3
  GI50: 387 nM
HT-29 [4]
  Activity: <20%
MCF7
  GI50: 45 nM
K562
  GI50: 262 nM
K-562R
  GI50: 88 nM

## C=C(c1cc(OC)c(OC)c(OC)c1)c1ccc2c(c1)c(C(=O)NO)cn2C
[1]
  IC50: 7300 nM
HCT-116; Homo sapiens, HCT-116, 72 h
  GI50: 30 nM

## C=C(c1ccc(OC)c(C#CCCC(=O)OCC)c1)c1cc(OC)c(OC)c(OC)c1
HCT-116; Homo sapiens, HCT-116, 72 h
  GI50: 1000 nM
Ovis aries
  inhibition: inactive

## C=C(c1ccc(OC)c(C#CCCCC(=O)OCC)c1)c1cc(OC)c(OC)c(OC)c1
HCT-116; Homo sapiens, HCT-116, 72 h
  GI50: 3000 nM
Ovis aries
  inhibition: inactive

## C=C(c1cc(OC)c(OC)c(OC)c1)c1ccc(OC)cc1/C=C/C(=O)NO
[5]
  fold change (FC): 2.7
[6]
  logP: 2.13
[1]
  IC50: 2100 nM
[7]
  fold change (FC): 1.6
A549; Homo sapiens, A549, 72 h
  GI50: 22 nM
[8]
  fold change (FC): 0.9
Histone deacetylase 8
  IC50: 60 nM
MIA PaCa-2; Homo sapiens, MIA PaCa-2, 72 h
  GI50: 18 nM
[9]
  inhibition: Dose-dependent effect
BXPC-3; Homo sapiens, BXPC-3, 72 h
  GI50: 25 nM
U-87 MG; Homo sapiens, U-87 MG, 72 h
  GI50: 11 nM
HCT-116; Homo sapiens, HCT-116, 72 h
  GI50: 8 nM
[10]
  solubility: 88.3 µg/mL (≈ 229 µM)
HT-29 [3]; Homo sapiens, HT-29, 72 h
  GI50: 63.6 nM
Histone deacetylase 11
  IC50: 8000 nM
[11]
  fold change (FC): 0.3
PC-3; Homo sapiens, PC-3, 72 h
  GI50: 28 nM
[12]
  IC50: 5000 nM
[13]
  fold change (FC): 2.9
[14]
  fold change (FC): 1.3
MCF7; Homo sapiens, MCF7, 72 h
  GI50: 17 nM
K562; Homo sapiens, K562, 72 h
  GI50: 20 nM
K-562R; Homo sapiens, K-562R, 72 h
  GI50: 80 nM

## C=C(c1ccc(OC)c(OCCCCCCC(=O)OCC)c1)c1cc(OC)c(OC)c(OC)c1
HCT-116; Homo sapiens, HCT-116, 72 h
  GI50: 3000 nM
Ovis aries
  inhibition: inactive

## O=C(CCCCCCC(=O)Nc1ccccc1)NO [VORINOSTAT]
[15]
  Activity: 1.8%
[16]
  Activity: 6.7%

## C=C(c1ccc(OC)c(/C=C/C(=O)OC)c1)c1cc(OC)c(OC)c(OC)c1
[1]
  IC50: 4000 nM
HCT-116; Homo sapiens, HCT-116, 72 h
  GI50: 85 nM

## C=C(c1ccc(OC)c(OCC(=O)NO)c1)c1cc(OC)c(OC)c(OC)c1
[1]
  IC50: 2400 nM
HCT-116; Homo sapiens, HCT-116, 72 h
  GI50: 22 nM
